We go through two compounds from patent publication US10189957B2, “Formulation process method to produce spray dried products” (ISP INVESTMENTS LLC, priority 2007, dated 2019).

Data set [1] in a line: Dissolution test, USP apparatus II (paddles), powders in size 1 hard gelatin capsules. It is filed as physicochemical. The settings on record: amount equivalent to 50 mg efavirenz, capsules with additional 15% croscarmellose sodium, 37° C. Here is the method: A. The dissolution properties of both amorphous compositions were tested and compared to crystalline EFV. An amount equivalent to 50 mg efavirenz was analyzed. Powders were hand-filled into size 1 hard gelatin capsules (Shinogi Qualicaps) with an additional 15% croscarmellose sodium (Ac-Di-Sol®, FMC BioPolymers). USP apparatus II (paddles) (VK 7010®, Varian Inc.) was used, with a bath temperature of 37° C. and a paddle speed of 50 rpm for 60 minutes.
B. Each of the amorphous powders from Examples 1 and 2 achieved higher rate of release and maximum aqueous concentration than the crystalline form (FIG. 6, Table 2). The initial rate of release from the amorphous powders was more than 10-times higher than the crystalline form.

A short description of data set [2]: Solubility in ethyl acetate at standard laboratory conditions. Format: physicochemical. The settings on record: about 25° C. and 1 atmosphere. Here is the method:
A dispersion was prepared containing 1 ezetimibe: 1 PVP K-12 at 1% total solids in ethyl acetate at standard laboratory conditions (about 25° C. and 1 atmosphere).

As for `O=C1Nc2ccc(Cl)cc2[C@@](C#CC2CC2)(C(F)(F)F)O1` [crystalline EFV, efavirenz], the extent of release in data set [1] (paddle speed 50 rpm for 60 minutes) stood at 10%. For the same compound, the “rate of release, 0-15 min” value in data set [1] (paddle speed 50 rpm, 0-15 min) turned out to be 0.13 mg/min. Take `O=C1[C@H](CC[C@H](O)c2ccc(F)cc2)[C@@H](c2ccc(O)cc2)N1c1ccc(F)cc1` [ezetimibe]: in data set [2], the “solubility in ethyl acetate” value was “soluble”.
